The data set can be described thus: Solubility of the compound of formula (i). The class given is physicochemical. The method, then:
Solubility of this compound is 1.09 μg/mL in Solution 1 (pH 1.2) defined in the Japanese Pharmacopoeia at 37° C., 0.88 μg/mL in Solution 2 (pH 6.8) defined in the Japanese Pharmacopoeia at 37° C., 0.53 μg/mL in a phosphate buffer (pH 7.2) at 37° C., and about 2 mg/mL in Panasate at room temperature.

In the case of `O=C(Cc1c(F)cccc1Cl)Nc1onc(-c2ccc(F)cc2)c1-c1ccncn1` [formula (i)], the solubility is, setting by setting: (Solution 1 defined in the Japanese Pharmacopoeia, simulated gastric fluid, Solution 1 (pH 1.2) defined in the Japanese Pharmacopoeia at 37° C.) 1.09 µg/mL; (Solution 2 defined in the Japanese Pharmacopoeia, aqueous buffer, Solution 2 (pH 6.8) defined in the Japanese Pharmacopoeia at 37° C.) 0.88 µg/mL; (aqueous buffer, phosphate buffer (pH 7.2) at 37° C.) 0.53 µg/mL; (oil or lipid, in Panasate at room temperature) about 2000 µg/mL.

For orientation: solubility means the concentration that dissolves in the medium under given conditions. A lower solubility goes with little dissolved substance.
